Data as given in PubChem BioAssay (NCI).
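GI50 is the concentration that inhibits growth by half. TGI denotes the concentration required for complete inhibition of growth.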

Assays:
Assay in all cases: inhibition of tumour cell growth, NCI panel, 384-well format
[1] = test system: MOLT-4 leukemia
[2] = test system: NCI-H226 lung
[3] = test system: NCI-H23 lung
[4] = test system: NCI-H460 NSCLC
[5] = test system: NCI-H522 lung
[6] = test system: NCI/ADR-RES ovarian
[7] = test system: OVCAR-3 ovarian
[8] = test system: OVCAR-4 ovarian
[9] = test system: OVCAR-5 ovarian
[10] = test system: OVCAR-8 ovarian
[11] = test system: PC-3 prostate
[12] = test system: RPMI-8226 leukemia
[13] = test system: RXF 393 renal
[14] = test system: SF-268 CNS
[15] = test system: SF-295 CNS
[16] = test system: SF-539 CNS
[17] = test system: SK-MEL-28 melanoma
[18] = test system: SK-MEL-5 melanoma
[19] = test system: SK-OV-3 ovarian
[20] = test system: SN12C renal
[21] = test system: SNB-19 CNS
[22] = test system: SNB-75 CNS
[23] = test system: SR leukemia
[24] = test system: SW-620 colon
[25] = test system: TK-10 renal
[26] = test system: UACC-257 melanoma
[27] = test system: UACC-62 melanoma
[28] = test system: UO-31 renal

CCN1C(=O)N(c2c(F)c(OC)cc(OC)c2F)Cc2cnc3[nH]c(CN4CCOCC4)cc3c21
GI50 [1]: 1.95 µM
TGI [1]: 4 µM
TGI [2]: 9.91 µM
GI50 [3]: > 23.3 µM
TGI [3]: > 100 µM
GI50 [4]: 3.48 µM
TGI [4]: > 31.6 µM
GI50 [5]: > 26.1 µM
TGI [5]: > 100 µM
GI50 [6]: 4.51 µM
TGI [6]: > 100 µM
GI50 [7]: 5.94 µM
TGI [7]: > 31.6 µM
GI50 [8]: 19.3 µM
TGI [8]: > 100 µM
GI50 [9]: > 73.3 µM
TGI [9]: > 100 µM
GI50 [10]: 4.8 µM
TGI [10]: > 100 µM
GI50 [11]: > 100 µM
TGI [11]: > 100 µM
GI50 [12]: 2.11 µM
TGI [12]: 6.34 µM
GI50 [13]: 0.962 µM
GI50 [14]: 5.25 µM
TGI [14]: 16.9 µM
GI50 [15]: 4.62 µM
TGI [15]: 47.4 µM
GI50 [16]: 3.55 µM
TGI [16]: > 44.5 µM
GI50 [17]: > 100 µM
TGI [17]: > 100 µM
GI50 [18]: 5.75 µM
TGI [18]: > 100 µM
GI50 [19]: 2.62 µM
TGI [19]: > 100 µM
GI50 [20]: 5.32 µM
TGI [20]: > 100 µM
GI50 [21]: > 100 µM
TGI [21]: > 100 µM
GI50 [22]: 0.0229 µM
TGI [22]: 6.52 µM
GI50 [23]: 2.67 µM
TGI [23]: 8.35 µM
GI50 [24]: 7.31 µM
GI50 [25]: > 100 µM
TGI [25]: > 100 µM
GI50 [26]: > 100 µM
TGI [26]: > 100 µM
GI50 [27]: 3.8 µM
TGI [27]: > 100 µM
GI50 [28]: > 31 µM
TGI [28]: > 100 µM
